The text below walks through data of patent publication US11773381B2, “Cell penetrating peptide, conjugate comprising same, and composition comprising conjugate” (GemVax & KAEL CO., LTD., priority 2012, dated 2023).

For the assay, the system named is HeLa cell. The assay can be described thus: Cell penetration of pep(CPP)-FITC conjugates in HeLa cell line, flow cytometry (FACS). Particulars: HeLa cells, 20 μM of each carrier peptide combined with FITC, 37° C. for an hour, control cells treated only FITC. It is filed as cell-based, Homo sapiens. As to the method: Homo sapiens cervix adenocarcinoma cell line as HeLa cell lines were purchased from ATCC (American Type Cell Culture). The cells were cultured in MEM supplemented with 10% fetal bovine serum (Invitrogen, USA), Earle's salts, non-essential amino acids, sodium pyruvate and 100 μg/ml penicillin and 10 units/ml streptomycin and cultured at 37° C., 5% CO2 incubator.
Flow cytometry and Confocal microscope analysis were performed to compare the between degree of cellular uptake of the cells were treated with SEQ ID NO: 1 to SEQ ID NO: 156, pep (CPP) and control.
The cell line was divided in a 6-well plate and cultured in a medium containing 10% fetal bovine serum (Invitrogen, USA), […] at 37° C., 5% CO2 incubator for 12 hours. After washing the cell line with PBS, starvation was induced in a Minimum Essential Medium for an hour. 20 μM of each carrier peptide was treated and cultured at 37° C. for an hour. After repeating the step of washing the cells with PBS for three times, Trypsin-EDTA was treated form 10 mins at 37° C. to separate the carrier peptide on the outside of the cell. cells were collected with refrigerated PBS and centrifugation was performed to repeat the step of washing the cells for three times. After then, the cells were suspended in 0.5 ml of PBS containing 4% Paraformaldehyde and fluorescence of the cells was analyzed using FACS Calibur (Becton Dickinson). The cellular uptake aspect of control and various peptides combined with FITC was compared and analyzed by MFI (Mean Fluorescence Intensity).
Analysis results shown in FIG. 1 to FIG. 23 are given in detail in Table 3 below.
Background: A flow cytometer gives signals particle by particle.
Take “GLLGASVLG (listed as Homo sapiens) [pep30]”: the “cellular uptake, MFI (Mean Fluorescence Intensity)” value (from here on “cellular uptake, MFI”) was 14.37 ± 1.73.
For the sequence “GLLGASVLGL (listed as Homo sapiens) [pep4]”, the “cellular uptake, MFI” value is listed as 28.35 ± 2.54.
“GVPLGLPAPGARRRGGSASR (listed as Homo sapiens) [pep118]”: the “cellular uptake, MFI” value was found to be 14.69 ± 0.33.
“KLQSIGIRQHLKRVQ (listed as Homo sapiens) [pep39]”: the “cellular uptake, MFI” value stood at 21.4 ± 0.99.
With “KLTRHRVTYVPLLGSLRTAQ (listed as Homo sapiens) [pep104]” the figure was 36.74 ± 1.11.
Consider “KMSVRDCAWLRRSPGVGCVP (listed as Homo sapiens) [pep133]”, for which the “cellular uptake, MFI” value stood at 46.79 ± 1.92.
In the case of “KSVWSKLQSIGIRQH (listed as Homo sapiens) [pep48]”, the “cellular uptake, MFI” value turned out to be 26.51 ± 2.36.
In the case of “KTFLRTLVRGVPEYGCVVNL (listed as Homo sapiens) [pep94]”, the “cellular uptake, MFI” value came to 117.76 ± 4.24.
Consider “LCSLCYGDMENKLFAGIRRD (listed as Homo sapiens) [pep92]”, for which the “cellular uptake, MFI” value is 19.91 ± 0.51.
As to “LDDIHRAWRTFVLRV (listed as Homo sapiens) [pep45]”, the “cellular uptake, MFI” value was found to be 203.77 ± 3.26.
The figure for LFFYRKSVWSKLQSI [pep38] is 380.4 ± 2.6; for “LFSVLNYERARRPGLLGASV (listed as Homo sapiens) [pep83]” it is 24.57 ± 1.36; for “LGASVLGL (listed as Homo sapiens) [pep36]” it is 15.37 ± 2.65.
Consider “LGPQGWRLVQRGDPAAFRAL (listed as Homo sapiens) [pep109]”, for which the “cellular uptake, MFI” value was 12.46 ± 1.32.
“LKRVQLRELSEAEVRQ (listed as Homo sapiens) [pep49]”: the “cellular uptake, MFI” value came out at 13.91 ± 0.51.
As for “LLGASVLGL (listed as Homo sapiens) [pep12]”, the “cellular uptake, MFI” value worked out at 22 ± 2.6.
Turning to “LLVTPHLTHAKTFLRLTVRG (LLVTPHLTHAKTFLRTLVRG; listed as Homo sapiens) [pep151]”, the “cellular uptake, MFI” value amounted to 23.52 ± 0.56.
Turning to “LRFIPKPDGLRPIVNMDYVV (listed as Homo sapiens) [pep81]”, the “cellular uptake, MFI” value is given as 29.69 ± 2.49.
As for “LRRVGDDVLVHLIARCALFV (LRRVGDDVLVHLLARCALFV; listed as Homo sapiens) [pep57]”, the “cellular uptake, MFI” value was determined as 568.02 ± 3.01.
With “LSEAEVRQHREARPALLTSR (listed as Homo sapiens) [pep80]” the figure was 12.45 ± 0.46.
Regarding “LVAPSCAYWVCGPPLYQLGA (LVAPSCAYQVCGPPLYQLGA; listed as Homo sapiens) [pep58]”, the “cellular uptake, MFI” value turned out to be 19.87 ± 0.94.
As for “MPRAPRCRAV (listed as Homo sapiens) [pep107]”, the “cellular uptake, MFI” value amounted to 23.11 ± 0.56.
Turning to “MPRAPRCRAVRSLLRSHYRE (listed as Homo sapiens) [pep50]”, the “cellular uptake, MFI” value is on record as 2228.76 ± 3.68.
For “NKLFAGIRRDGLLLRLVDDF (listed as Homo sapiens) [pep150]”, the “cellular uptake, MFI” value turned out to be 17.46 ± 0.24.
Turning to “NYERARRPGL (listed as Homo sapiens) [pep19]”, the “cellular uptake, MFI” value came to 13.04 ± 3.41.
In the case of “PAAGVCAREKPQGSVAAPEE (listed as Homo sapiens) [pep71]”, the “cellular uptake, MFI” value stood at 16.61 ± 0.88.
With “PALPSDFKTILD (listed as Homo sapiens) [pep106]” the figure was 12.45 ± 0.38.
For the sequence “PGLLGASVL (listed as Homo sapiens) [pep27]”, the “cellular uptake, MFI” value came to 9.89 ± 2.51.
With “PPEAFTTSVRSYLPNTVTDA (listed as Homo sapiens) [pep113]”, the “cellular uptake, MFI” value is 16.09 ± 2.5.
As for “PQDRLTEVIASIIKP (listed as Homo sapiens) [pep47]”, the “cellular uptake, MFI” value worked out at 15.85 ± 1.03.
Consider “PYMRQFVAHLQETSPLRDAV (listed as Homo sapiens) [pep146]”, for which the “cellular uptake, MFI” value was 18.32 ± 1.82.
With “QETSPLRDAVVIEQSSSLNE (listed as Homo sapiens) [pep89]”, the “cellular uptake, MFI” value is listed as 13.54 ± 0.75.
Consider “QMPAHGLFPWCGLLLDTRTL (listed as Homo sapiens) [pep96]”, for which the “cellular uptake, MFI” value turned out to be 308.53 ± 3.61.
Take “RARRPGLL (listed as Homo sapiens) [pep35]”: the “cellular uptake, MFI” value worked out at 15.54 ± 1.38.
Consider “RAWNHSVREAGVPLGLPAPG (listed as Homo sapiens) [pep60]”, for which the “cellular uptake, MFI” value worked out at 15.79 ± 1.63.
For “RFHACVLQLPFHQQVWKNPT (listed as Homo sapiens) [pep158]”, the “cellular uptake, MFI” value is recorded as 87.75 ± 2.51.
“RGDPAAFRALVAQCLVCVPW (listed as Homo sapiens) [pep52]”: the “cellular uptake, MFI” value was 16.67 ± 2.22.
Turning to “RGKSYVQCQGIPQGSILSTL (listed as Homo sapiens) [pep91]”, the “cellular uptake, MFI” value was found to be 24.41 ± 2.79.
“RKTVVNFPVEDEALGGTAFV (listed as Homo sapiens) [pep95]”: the “cellular uptake, MFI” value was determined as 10.92 ± 0.07.
As for “RLTSRVKAL (listed as Homo sapiens) [pep7]”, the “cellular uptake, MFI” value is on record as 9.51 ± 2.95.
For the sequence “RLVPPGLWGSRHNERRFLRN (listed as Homo sapiens) [pep131]”, the “cellular uptake, MFI” value amounted to 32.51 ± 2.38.
“RPALLTSRL (listed as Homo sapiens) [pep6]”: the “cellular uptake, MFI” value was 15.81 ± 1.59.
For the sequence “RPALLTSRLRFIPKP (listed as Homo sapiens) [pep41]”, the “cellular uptake, MFI” value is 28.97 ± 3.44.
For the sequence “RPGLLGASVL (listed as Homo sapiens) [pep21]”, the “cellular uptake, MFI” value stood at 13.22 ± 1.67.
“RPIVNMDYVVGARTFRREKR (listed as Homo sapiens) [pep139]”: the “cellular uptake, MFI” value turned out to be 29.95 ± 0.28.
The figure for “RPSLTGARRLVETIFLGSRP (listed as Homo sapiens) [pep125]” is 28.62 ± 2.12.
With “RQHHAGPPSTSRPPRPWDTP (listed as Homo sapiens) [pep65]” the figure was 12.72 ± 1.36.
With “RRPGLLGAS (listed as Homo sapiens) [pep28]” the figure was 14.08 ± 3.11; with “RRPGLLGASVLGLDDIHRAW (listed as Homo sapiens) [pep141]”, 20.89 ± 0.31; with “RRSPGVGCVPAAEHRLREEI (listed as Homo sapiens) [pep76]”, 13.98 ± 0.11.
With “RSLLRSHYREVLPLATFVRR (listed as Homo sapiens) [pep108]”, the “cellular uptake, MFI” value worked out at 22.53 ± 0.95.
Turning to “RTFRREKRAERLTSR (listed as Homo sapiens) [pep43]”, the “cellular uptake, MFI” value was found to be 29.88 ± 2.35.
Regarding “RTFVLRVRAQDPPPE (listed as Homo sapiens) [pep8]”, the “cellular uptake, MFI” value is listed as 17.75 ± 1.96.
On to “RTRGPSDRGFCVVSPARPAE (listed as Homo sapiens) [pep63]”, for which the “cellular uptake, MFI” value is listed as 21.3 ± 1.55.
In the case of “SGPRRRLGCERAWNHSVREA (listed as Homo sapiens) [pep117]”, the “cellular uptake, MFI” value was found to be 23.11 ± 2.46.
Take “SHVSTLTDLQPYMRQFVAHL (listed as Homo sapiens) [pep88]”: the “cellular uptake, MFI” value came to 16.43 ± 0.55.
Turning to “SLCYSILKAKNAGMSLGAKG (listed as Homo sapiens) [pep102]”, the “cellular uptake, MFI” value was found to be 45.84 ± 1.58.
Regarding “SLPLPKRPRRGAAPEPERTP (listed as Homo sapiens) [pep119]”, the “cellular uptake, MFI” value is reported as 13.23 ± 0.64.
“SRPPRPWDTPCPPVYAETKH (listed as Homo sapiens) [pep123]”: the “cellular uptake, MFI” value is on record as 18.03 ± 2.83.
The figure for “SVLGLDDIH (listed as Homo sapiens) [pep31]” is 14.93 ± 2.05.
For “SVLGLDDIHR (listed as Homo sapiens) [pep17]”, the “cellular uptake, MFI” value worked out at 15.26 ± 2.23.
For the sequence “SVLNYERAR (listed as Homo sapiens) [pep24]”, the “cellular uptake, MFI” value came out at 13.78 ± 1.07.
The figure for “SVLNYERARR (listed as Homo sapiens) [pep16]” is 20.12 ± 1.84; for “SVLNYERARRPGLLG (listed as Homo sapiens) [pep3]” it is 18.23 ± 3.21.
